# Source: US11993578B2, “Pyrazole-3-carboxylic acid amide derivative and pest control agent” (KUMIAI CHEMICAL INDUSTRY CO., LTD., priority 2017, dated 2024)
# Tested on: Aphis gossypii
# Test: Aphis gossypii killing test (Test Example 3)
# Type: in vivo
# Conditions: 72 h, 500 ppm active ingredient, cucumber nursery plant with nymphs dipped, after 3 days, 25° C., read-out: percentage of dead insects
# Description: [formula] The water-dispersible powder prepared in accordance with Formulation example 2 was diluted in water so that the concentration of the active ingredient was 500 ppm. A nursery plant of cucumber preliminarily inoculated with nymphs of Aphis gossypii was dipped in this liquid agent, and air-dried. The nursery plant of cucumber after the treatment was placed in a thermostatic chamber at 25° C., and the number of live insects was counted after 3 days, and the percentage of dead insects was determined by the calculation formula of numerical formula 1. The test was conducted singly.
row,Compound,pest or weed control at 500 ppm
1,"NC(=O)c1nn(-c2ccc[n+]([O-])c2)cc1OC(F)(F)C(F)OC(F)(F)F (centres unmarked) [Compound A-5510, 3-(3-carbamoyl-4-[1,1,2-trifluoro-2-(trifluoromethoxy)ethoxy]-1H-pyrazole-1-yl)pyridine-1-oxide]",≥ 50%
2,"CC(C)(C)CCOc1cn(-c2cccnc2)nc1C(N)=O [Compound A-0017, 4-(3,3-dimethylbutoxy)-1-(pyridine-3-yl)-1H-pyrazole-3-carboxamide]",≥ 50%
3,"NC(=O)c1nn(-c2cccnc2)cc1O [Compound A-0001, 4-hydroxy-1-(pyridine-3-yl)-1H-pyrazole-3-carboxamide]",≥ 50%
4,"NC(=S)c1nn(-c2cccnc2)cc1OC(F)(F)C(F)OC(F)(F)F (centres unmarked) [Compound A-5436, 1-(pyridine-3-yl)-4-[1,1,2-trifluoro-2-(trifluoromethoxy)ethoxy]-1H-pyrazole-3-carbothioamide]",≥ 50%
5,"CC(C)C(=O)NC(=O)c1nn(-c2cccnc2)cc1OC(F)(F)C(F)OC(F)(F)F (centres unmarked) [Compound A-2403, N-isobutyryl-1-(pyridine-3-yl)-4-[1,1,2-trifluoro-2-(trifluoromethoxy)ethoxy]-1H-pyrazole-3-carboxamide]",≥ 50%
6,"NC(=O)c1nn(-c2cccnc2)cc1OC(F)(F)C(F)OC(F)(F)F (centres unmarked) [Compound A-0071, 1-(pyridine-3-yl)-4-[1,1,2-trifluoro-2-(trifluoromethoxy)ethoxy]-1H-pyrazole-3-carboxamide]",≥ 50%
7,"NC(=O)c1nn(-c2cccnc2)cc1OCc1ccccc1 [Compound A-0240, 4-benzyloxy-1-(pyridine-3-yl)-1H-pyrazole-3-carboxamide]",≥ 50%
8,"NC(=O)c1nn(-c2cccnc2)cc1OCC(F)(F)C(F)(F)F [Compound A-0044, 4-(2,2,3,3,3-pentafluoropropoxy)-1-(pyridine-3-yl)-1H-pyrazole-3-carboxamide]",≥ 50%
